Measured values taken from patent publication US20230312528A1, “2-OXO-IMIDAZOLIDINE-4-CARBOXAMIDES AS NAV1.8 INHIBITORS” (Merck Sharp & Dohme LLC, priority 2020, published 2023).
“And” between values parts separate entries of the source, which are not always exact repeats. Identical values can stand only once.

Biological target: human NaV1.8 (Homo sapiens (Human), UniProt Q9Y5Y9)
Assay: Nav1.8 Qube automated patch-clamp assay
Format: cell-based
Details: human NaV1.8 stably expressed in HEK 293 cells; automated 384-well patch-clamp; resting or inactivated state not specified
Method in brief: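 IC50 values from Hill-equation fits of offline percent inhibition: the 1st pulse gave resting and the 10th pulse inactivated-state inhibition. Stimulus was a 10 s, 1 Hz train to 10 mV (holding −90 mV, −67 mV interpulse) applied at room temperature to HEK293 cells stably expressing human NaV1.8 (Qube).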

Sequence of human NaV1.8 (Q9Y5Y9 whole entry): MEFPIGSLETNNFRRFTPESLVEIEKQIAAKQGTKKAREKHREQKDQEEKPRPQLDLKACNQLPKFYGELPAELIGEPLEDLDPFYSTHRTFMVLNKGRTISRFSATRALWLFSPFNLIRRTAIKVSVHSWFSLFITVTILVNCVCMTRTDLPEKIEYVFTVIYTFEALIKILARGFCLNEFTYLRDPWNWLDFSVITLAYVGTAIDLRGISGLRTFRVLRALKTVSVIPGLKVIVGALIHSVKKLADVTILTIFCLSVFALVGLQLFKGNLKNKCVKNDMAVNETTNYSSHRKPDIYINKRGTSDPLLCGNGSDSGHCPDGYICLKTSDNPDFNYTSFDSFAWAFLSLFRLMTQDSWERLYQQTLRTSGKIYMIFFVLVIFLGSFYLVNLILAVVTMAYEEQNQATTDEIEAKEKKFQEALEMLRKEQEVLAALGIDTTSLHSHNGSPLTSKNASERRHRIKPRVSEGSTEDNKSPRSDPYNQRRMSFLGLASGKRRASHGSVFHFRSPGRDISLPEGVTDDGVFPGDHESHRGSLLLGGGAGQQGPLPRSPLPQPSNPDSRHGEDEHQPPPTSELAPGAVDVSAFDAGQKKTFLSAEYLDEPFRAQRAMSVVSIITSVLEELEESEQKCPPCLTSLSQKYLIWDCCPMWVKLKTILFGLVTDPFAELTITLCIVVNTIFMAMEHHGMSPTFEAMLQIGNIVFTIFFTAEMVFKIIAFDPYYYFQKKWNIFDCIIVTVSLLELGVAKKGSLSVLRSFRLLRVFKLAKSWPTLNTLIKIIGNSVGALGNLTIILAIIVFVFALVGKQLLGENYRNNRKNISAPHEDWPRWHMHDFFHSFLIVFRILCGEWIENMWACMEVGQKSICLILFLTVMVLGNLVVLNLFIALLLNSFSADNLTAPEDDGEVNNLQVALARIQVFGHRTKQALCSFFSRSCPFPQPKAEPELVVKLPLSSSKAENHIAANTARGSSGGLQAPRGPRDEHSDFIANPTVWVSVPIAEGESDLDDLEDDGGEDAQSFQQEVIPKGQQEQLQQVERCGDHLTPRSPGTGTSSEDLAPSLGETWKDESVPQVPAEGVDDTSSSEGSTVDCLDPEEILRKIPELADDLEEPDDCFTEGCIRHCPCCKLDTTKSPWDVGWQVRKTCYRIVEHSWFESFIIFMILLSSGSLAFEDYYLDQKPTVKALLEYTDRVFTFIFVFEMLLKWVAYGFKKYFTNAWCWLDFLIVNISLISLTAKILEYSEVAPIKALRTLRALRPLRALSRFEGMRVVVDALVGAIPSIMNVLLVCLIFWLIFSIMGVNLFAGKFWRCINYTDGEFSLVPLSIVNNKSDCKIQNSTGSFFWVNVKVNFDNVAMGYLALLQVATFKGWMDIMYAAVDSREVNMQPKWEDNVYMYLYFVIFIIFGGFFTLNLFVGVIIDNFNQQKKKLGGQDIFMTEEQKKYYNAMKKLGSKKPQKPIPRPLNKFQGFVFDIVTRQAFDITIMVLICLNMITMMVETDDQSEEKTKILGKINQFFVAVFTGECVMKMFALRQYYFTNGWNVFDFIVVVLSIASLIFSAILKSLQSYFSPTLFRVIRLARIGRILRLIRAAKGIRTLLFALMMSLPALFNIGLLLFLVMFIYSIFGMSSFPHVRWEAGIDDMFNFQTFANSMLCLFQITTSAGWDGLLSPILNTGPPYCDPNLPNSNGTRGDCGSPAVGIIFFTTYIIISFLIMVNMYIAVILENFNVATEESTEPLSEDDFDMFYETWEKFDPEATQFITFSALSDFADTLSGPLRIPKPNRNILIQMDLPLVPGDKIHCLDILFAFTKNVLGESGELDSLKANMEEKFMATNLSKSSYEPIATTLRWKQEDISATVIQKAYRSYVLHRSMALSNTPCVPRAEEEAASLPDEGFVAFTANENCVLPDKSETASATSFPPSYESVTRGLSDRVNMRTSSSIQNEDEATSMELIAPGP

SMILES	IC50
O=C1NC[C@@H](C(=O)NC(c2ccc(OC(F)(F)F)cc2)c2ccc(Cl)c(C3CC3)n2)N1 (single isomer, unassigned) [Example 40A, (S)-N-((R or S)-(5-chloro-6-cyclopropylpyridin-2-yl)(4-(trifluoromethoxy)phenyl)methyl)-2-oxoimidazolidine-4-carboxamide]	21 nM
O=C1NC[C@@H](C(=O)NC(c2ccc(OC(F)(F)F)c(Cl)c2)c2cnn(C(F)(F)F)c2)N1 (single isomer, unassigned) [Example 41B, (S)—N—((R or S)-(3-chloro-4-(trifluoromethoxy)phenyl)(1-(trifluoromethyl)-1H-pyrazol-4-yl)-l3-methyl)-2-oxoimidazolidine-4-carboxamide]	16 nM
O=C1NC[C@@H](C(=O)NC(c2cnc(OC(F)F)c(F)c2)c2ccc(F)c(Cl)c2F)N1 (single isomer, unassigned) [Example 42, (S)-N-((R or S)-(3-chloro-2,4-difluorophenyl)(6-(difluoromethoxy)-5-fluoropyridin-3-yl)methyl)-2-oxoimidazolidine-4-carboxamide]	190 nM
O=C1NC[C@@H](C(=O)NC(c2ccc(C(F)F)nc2)c2ccc(F)c(Cl)c2F)N1 (single isomer, unassigned) [Example 43, (S)-N-((R or S)-(3-chloro-2,4-difluorophenyl)(6-(difluoromethyl)pyridin-3-yl)methyl)-2-oxoimidazolidine-4-carboxamide]	13 nM
O=C1NC[C@@H](C(=O)NC(c2ccc(OC(F)(F)F)nc2)c2ccc(F)c(C(F)(F)F)n2)N1 (single isomer, unassigned) [Example 45A, (S)-N-((R or S)-(5-fluoro-6-(trifluoro-methyl)pyridin-2-yl)(6-(trifluoromethoxy)pyridin-3-yl)methyl)-2-oxoimidazolidine-4-carboxamide]	10 nM
O=C1NC[C@@H](C(=O)NC(c2ccc(OC(F)(F)F)nc2)c2ccc(F)c(C(F)(F)F)n2)N1 (single isomer, unassigned) [Example 45B, (S)-N-((R or S)-(5-fluoro-6-(trifluoro-methyl)pyridin-2-yl)(6-(trifluoromethoxy)pyridin-3-yl)methyl)-2-oxoimidazolidine-4-carboxamide]	125 nM
O=C1NC[C@@H](C(=O)NC(c2cnc(OCC(F)(F)F)c(F)c2)c2ccc(F)c(C(F)(F)F)n2)N1 (single isomer, unassigned) [Example 46B, (S)-N-((R or S)-(5-fluoro-6-(2,2,2-trifluoroethoxy)pyridin-3-yl)(5-fluoro-6-(trifluoromethyl)pyridin-2-yl)methyl)-2-oxoimidazolidine-4-carboxamide]	27 nM and 6 nM
O=C1NC[C@@H](C(=O)NC(c2cnc(C(F)(F)F)nc2)c2ccc(F)c(Cl)c2F)N1 (single isomer, unassigned) [Example 48, (S)-N-((R or S)-(3-chloro-2,4-difluorophenyl)(2-(trifluoromethyl)pyrimidin-5-yl)methyl)-2-oxoimidazolidine-4-carboxamide]	16 nM
O=C1NC[C@@H](C(=O)NC(c2ccc(OCC(F)(F)F)nn2)c2ccc(F)c(Cl)c2F)N1 (single isomer, unassigned) [Example 50A, (4S)—N—((R or S)-(3-chloro-2,4-difluorophenyl)(6-(2,2,2-trifluoroethoxy)-pyridazin-3-yl)methyl)-2-oxoimidazolidine-4-carboxamide]	45 nM
O=C1NC[C@@H](C(=O)NC(c2ccc(OCC(F)(F)F)nn2)c2ccc(F)c(Cl)c2F)N1 (single isomer, unassigned) [Example 50B, (4S)—N—((R or S)-(3-chloro-2,4-difluorophenyl)(6-(2,2,2-trifluoroethoxy)pyridazin-3-yl)methyl)-2-oxoimidazolidine-4-carboxamide]	206 nM
O=C1NC[C@@H](C(=O)NC(c2cnc(OCC(F)(F)F)cn2)c2ccc(F)c(Cl)c2F)N1 (single isomer, unassigned) [Example 51B, N—((R or S)-(3-chloro-2,4-difluorophenyl)(5-(2,2,2-trifluoroethoxy)pyrazin-2-yl)methyl)-2-oxoimidazolidine-4-carboxamide]	166 nM
O=C1NC[C@@H](C(=O)NC(CCc2ccc(Cl)cc2)c2ccc(F)c(Cl)c2F)N1 (single isomer, unassigned) [Example 52A, (4S)—N—((R or S)-1-(3-chloro-2,4-difluorophenyl)-3-(4-chlorophenyl)propyl)-2-oxoimidazolidine-4-carboxamide]	46 nM
O=C1NC[C@@H](C(=O)NC(CC2CCCCC2)c2ccc(F)c(Cl)c2F)N1 (single isomer, unassigned) [Example 54B, (S)-N-((R or S)-1-(3-chloro-2,4-difluorophenyl)-2-cyclohexylethyl)-2-oxoimidazolidine-4-carboxamide]	50 nM
O=C1NC[C@@H](C(=O)NC(c2cnc(OC(F)F)nc2)c2ccc(F)c(Cl)c2F)N1 (single isomer, unassigned) [Example 55A, (4S)—N—((R or S)-(3-chloro-2,4-difluorophenyl)(2-(difluoromethoxy)pyrimidin-5-yl)methyl)-2-oxoimidazolidine-4-carboxamide]	79 nM

The next lines start with the values.

IC50	SMILES
2.5 nM	O=C1NC[C@@H](C(=O)NC(c2ccc(OC(F)(F)F)c(Cl)c2)c2ccc(OC(F)(F)F)cn2)N1 (single isomer, unassigned) [Example 39B, (S)—N—((R or S)-(3-chloro-4-(trifluoromethoxy)phenyl)(5-(trifluoromethoxy)pyridin-2-yl)methyl)-2-oxoimidazolidine-4-carboxamide]
3.5 nM	O=C1NC[C@@H](C(=O)NC(c2ccc(OC(F)(F)F)cc2)c2ccc(Cl)c(C3CC3)n2)N1 (single isomer, unassigned) [Example 40B, (S)-N-((R or S)-(5-chloro-6-cyclopropylpyridin-2-yl)(4-(trifluoromethoxy)phenyl)methyl)-2-oxoimidazolidine-4-carboxamide]
1.7 nM	O=C1NC[C@@H](C(=O)NC(c2ccc(OC(F)(F)F)c(Cl)c2)c2cnn(C(F)(F)F)c2)N1 (single isomer, unassigned) [Example 41A, (S)—N—((R or S)-(3-chloro-4-(trifluoromethoxy)phenyl)(1-(trifluoromethyl)-1H-pyrazol-4-yl)-l3-methyl)-2-oxoimidazolidine-4-carboxamide]
3.1 nM	O=C1NC[C@@H](C(=O)NC(c2cnc(C(F)(F)F)c(F)c2)c2ccc(F)c(Cl)c2F)N1 (single isomer, unassigned) [Example 44, (S)-N-((R or S)-(3-chloro-2,4-difluoro-phenyl)(5-fluoro-6-(trifluoromethyl)pyridin-3-yl)methyl)-2-oxoimidazolidine-4-carboxamide]
5.2 nM	O=C1NC[C@@H](C(=O)NC(c2ccc(OC(F)(F)F)c(Cl)c2)c2coc(C(F)(F)F)n2)N1 (single isomer, unassigned) [Example 47A, (S)-N-((R or S)-(3-chloro-4-(trifluoro-methoxy)phenyl)(2-(trifluoromethyl)oxazo 1-4-yl)methyl)-2-oxoimidazolidine-4-carboxamide]
3.9 nM	O=C1NC[C@@H](C(=O)NC(c2ccc(OC(F)(F)F)c(Cl)c2)c2coc(C(F)(F)F)n2)N1 (single isomer, unassigned) [Example 47B, (S)-N-((R or S)-(3-chloro-4-(trifluoro-methoxy)phenyl)(2-(trifluoromethyl)oxazo 1-4-yl)methyl)-2-oxoimidazolidine-4-carboxamide]
7.6 nM	O=C1NC[C@@H](C(=O)NC(c2ccc(OC(F)(F)F)c(Cl)c2)c2ccnc(C(F)(F)F)n2)N1 (single isomer, unassigned) [Example 49A, (S)-N-((R or S)-3-chloro-4-(trifluoro-methoxy)phenyl)(2-(trifluoromethyl)pyrimidin-4-yl)methyl)-2-oxoimidazolidine-4-carboxamide]
6.8 nM	O=C1NC[C@@H](C(=O)NC(c2ccc(OC(F)(F)F)c(Cl)c2)c2ccnc(C(F)(F)F)n2)N1 (single isomer, unassigned) [Example 49B, (S)-N-((R or S)-3-chloro-4-(trifluoro-methoxy)phenyl)(2-(trifluoromethyl)pyrimidin-4-yl)methyl)-2-oxoimidazolidine-4-carboxamide]
9.2 nM	O=C1NC[C@@H](C(=O)NC(c2cnc(OCC(F)(F)F)cn2)c2ccc(F)c(Cl)c2F)N1 (single isomer, unassigned) [Example 51A, N—((R or S)-(3-chloro-2,4-difluorophenyl)(5-(2,2,2-trifluoroethoxy)pyrazin-2-yl)methyl)-2-oxoimidazolidine-4-carboxamide]
4.3 nM	O=C1NC[C@@H](C(=O)NC(CCc2ccc(Cl)cc2)c2ccc(F)c(Cl)c2F)N1 (single isomer, unassigned) [Example 52B, (4S)—N—((R or S)-1-(3-chloro-2,4-difluorophenyl)-3-(4-chlorophenyl)propyl)-2-oxoimidazolidine-4-carboxamide]
3.2 nM	O=C1NC[C@@H](C(=O)NC(CC2CCCCC2)c2ccc(F)c(Cl)c2F)N1 (single isomer, unassigned) [Example 54A, (S)-N-((R or S)-1-(3-chloro-2,4-difluorophenyl)-2-cyclohexylethyl)-2-oxoimidazolidine-4-carboxamide]
2.5 nM	O=C1NC[C@@H](C(=O)NC(c2cnc(C(F)(F)F)c(Cl)c2)c2ccc(Cl)c(C(F)(F)F)n2)N1 (single isomer, unassigned) [Example 56A, (S)-N-((R or S)-(5-chloro-6-(trifluoromethyl)pyridin-2-yl)(5-chloro-6-(trifluoromethyl)pyridin-3-yl)methyl)-2-oxoimidazolidine-4-carboxamide]
4.5 nM	O=C1NC[C@@H](C(=O)NC(c2cnc(C(F)(F)F)c(Cl)c2)c2ccc(Cl)c(C(F)(F)F)n2)N1 (single isomer, unassigned) [Example 56B, (S)-N-((R or S)-(5-chloro-6-(trifluoromethyl)pyridin-2-yl)(5-chloro-6-(trifluoromethyl)pyridin-3-yl)methyl)-2-oxoimidazolidine-4-carboxamide]
